According to US5451600A, “Substituted tetrahydrobenzopyrrolylfuranoic acid derivatives as phospholipase A2 inhibitors” (Hoffmann-La Roche Inc., priority 1994, dated 1995):
Where two headings read alike, the source gives them in different places.

Legend:
[1] = tested on: PLA2-induced rat paw edema (PLA2 purified from Naja naja snake venom); assay: PLA2-induced rat paw edema model of inflammation; type: in vivo
cellular PLA2 = assay: Inhibition of Cellular Phospholipase A2 (A23187-stimulated macrophages); type: cell-based; details: rat peritoneal macrophages, A-23187 stimulated
Description: II. Inhibition of Cellular Phospholipase A2. - % Inhibition of Cellular PLA2
Resident macrophages were obtained from rats by peritoneal lavage with phosphate buffered saline minus Ca2^++ and Mg2^++ (PBS). Cells were washed 3 times with PBS and resuspended in Dulbecco's Modified Eagle's Medium (GiBco) containing L-glutamine low D-glucose (1000 mg/L), and sodium pyruvate (110 mg/L), supplemented with 10% fetal calf serum. Cells were counted on a Coulter ZBI cell counter and then resuspended to a concentration of 6×10^6 cells/1.5 ml. The cell suspension (1.5 ml culture dishes (35 mm) and the cells were allowed to adhere to the dishes for 90 minutes at 37° C. Dishes were washed 3 times with PBS to remove non-adherent cells. [^14 C]arachidonic acid ([^14 C]-AA, approximately […], were added to the cells (1 uCi/dish) and allowed to incorporate for 120 minutes. Medium containing unincorporated [^14 C]-AA was removed and the cell layer was again washed 3 times with PBS. Inhibitors were dissolved in dimethylsulfoxide (DMSO) and added directly to the macrophages in Hank's Balanced Salt Solution (GiBco) phosphate-buffered, pH 7.4) to obtain the desired final concentration. Cells were incubated with drug or DMSO for 30 minutes at 37° C. and were then stimulated with calcium-ionophore A-23187 (0.75 uM) for 20 minutes. The extracellular medium was removed and the [^14 C] radioactivity released into this medium from AA metabolism was measured by liquid scintillation spectroscopy. The amounts of LTB4 and PGE2 were measured in the extracellular medium by radio immunoassay with specific antisera. The effects of inhibitor were measured as percent inhibition of A23187- stimulated AA metabolite release (^14 C release, PGE2 and LTB4 production) (control) which were calculated from the formula: [formula] IC50 's were calculated as described in the HSF-PLA2 assay.

[2] = tested on: carrageenan-induced paw edema in rats; assay: Carrageenan-induced paw edema model of inflammation; type: in vivo; details: 2 hr, rat, read-out: Carrageenan ind. paw edema % Inhib. 2 hr; for inhibition in vivo at 100 mg/kg: 100 mg/Kg po; for inhibition in vivo at 3 mg/kg: 3 mg/Kg ip
[3] = target: T1, PLA2 activity in human synovial fluid (HSF) (Homo sapiens, UniProt P14555); assay: Phospholipase A2 (PLA2) enzymatic assay - % Inhibition of HSF-PLA2; type: biochemical; details: for IC50: human synovial fluid PLA2, 30 min at 37° C., pH 7.3; for inhibition at 5 µM: read-out: % Inhib. of HSF-PLA2 at 5 μM
T1 construct: Synovial fluid was obtained from patients with rheumatoid arthritis; from tissue; host or cells: cell-depleted synovial fluid of patients with rheumatoid arthritis
T1 sequence (P14555 21-144): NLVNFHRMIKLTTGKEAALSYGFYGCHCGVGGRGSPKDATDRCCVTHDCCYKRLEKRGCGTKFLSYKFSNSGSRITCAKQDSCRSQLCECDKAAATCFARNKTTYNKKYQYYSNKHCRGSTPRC
Description: 1, Phospholipase A2 (PLA2) enzymatic assay - % Inhibition of HSF-PLA2
PLA2 assay procedure described by Hope et al., Inflammation 14:543-559 (1.990) was utilized to measure the inhibitory activity of the invention (inhibitor) against PLA2 activity in human synovial fluid (HSF). Synovial fluid was obtained from patients with rheumatoid arthritis. The assay procedure measured the release of [1-^14 C]oleic acid from the sn-2 position of phospholipids in autoclaved Escherichia coli previously grown in media containing [1-^14 C]oleic acid. The standard assay reaction conditions included 1×10^9 Escherichia coil (10,000 dpm ^14 C), 0.15% (v/v) cell-depleted HSF, (which was equivalent to 66 μg protein/mL) 2 mM CaCl2, 150 mM NaCl, 50 mM sodium (N-[2-hydroxyethyl] piperazine-N'-[2-ethanesulfonate]) (HEPES) buffer (pH 7.3), 1% dimethyl sulfoxide (DMSO) and various concentrations of inhibitor in a total volume of 0.5 ml. Inhibitors were dissolved in DMSO and added. The reaction was initiated by addition of HSF, incubated for 30 min at 37° C. and then stopped by addition of 2.5 ml of chloroform/methanol (1:1.5, v/v). The total lipids were extracted by the method of Bligh, E. G., and Dyer, W. J, Can. J. Biochem. Physiol. 37:911-917 (1959) by the further addition of 0.5 mL of chloroform and 1 mL of water with mixing. The lipid extract was redissolved in chloroform/methanol (9:1, v/v) containing 10 ug of carrier oleic acid. The oleic acid was separated from phospholipids by thin layer chromatography using gel-impregnated glass fiber sheets (ITLC type SG sheets). The sheets were preactivated by heating at 110° C. for 30 min. The lipid extract was applied to the sheets and chromatographed for 6 minutes, using hexane/acetic acid (100:1, v/v). The positions on the sheet containing oleic acid and phospholipids were visualized by exposure to iodine vapor and located by comparison to standards. The oleic acid and phospholipid zones were cut from the sheets, shaken individually with 2 ml of ethanol/water (80:20, v/v) and 15 ml of Aquasol, then counted for [^14 C] radioactivity (dpm). PLA2 activity, expressed as percent hydrolysis, was calculated from the formula: [formula] and was corrected for nonenzymatic hydrolysis of the substrate. Percent inhibition due to the presence of drug was calculated from the formula: [formula]
When various concentrations of a Compound of Formula I were tested, the percent inhibition at each concentration was plotted as log concentration (abscissa) versus percent inhibition (ordinate) and the IC50 was determined from this plot.

[4] = tested on: adjuvant-induced arthritis in male Lewis rats; assay: Established adjuvant-induced arthritis test; type: in vivo, rat; details: day 28 minus day 21, vehicle value in parentheses
Description: IV. Adjuvant-induced Arthritis
Male Lewis rats (120-140 g) received 0.1 mg myeobacterium brityricum (0.5% ow/v) heavy mineral oil containing 0.2% digitonin administered in the base of the tail and the resulting arthritis was allowed to develop for 21 days (Coffey and Salvador, 1981). The combinded volumes of both hind paws were measured using a water plethysmograph by immersion of the paws to the level of the lateral malleolus. The animals were divided into drug-treatedand vehicle (control) groups (six rats per group) with approximately equal volumes of both hind paws. On day 21, body weights were recorded and the i.p. or p.o. vehicle and drug were then administered daily for seven days. On day 28, the final day of the experiment, heparinized (0.2 units/100 μl) blood was also collected for measurement of plasma fibrinogen concentrations (Goodwin, 1961). The changes in paw volume and body weight were calculated as paw volume or body weight at day 28 minus paw volume or body weight at day 21. Values are reported as means ± S.E. for n=6. Plasma fibrinogen concentration was quantitated according to Goodwin et al. (1961) and is expressed in mg/dl. Statistical differences between measurement parameters of the drug-treated and control groups were determined using Students's t-test.

Row | Compound | PLA2-ind. paw edema % Inhib 2 hr ([1]; 30 mg/Kg ip) | PLA2-ind. paw edema % Inhib 2 hr ([1]; 100 mg/Kg po) | % Inhib. of cellular PLA2 at 5 μM (cellular PLA2) | IC50 (cellular PLA2) | inhibition in vivo at 10 mg/kg ([2]; 10 mg/Kg ip) | inhibition in vivo at 100 mg/kg [2] | IC50 [3] | inhibition at 5 µM [3] | Change of body wt. (vehicle) ([4]; 30 mg/Kg po daily seven days) | Change of paw volume (vehicle) ([4]; 30 mg/Kg po daily seven days) | inhibition in vivo at 3 mg/kg [2] | further results
1 | CCCCCCCCn1c2c(c3cc(/C=C/c4ccc(C(=O)O)o4)ccc31)CCCC2(C)C [Example 44, (E)-5-[2-(1,2,3,4-tetrahydro-1,1-dimethyl-9-octyl-9H-dibenzo[b,d]pyrrol-6-yl)ethenyl]-2-furancarboxylic acid] | 71% | 27% | 62% | 4 µM | 57% | 36% | 2.5 µM | 71% | 5 g | 0.68 mL | – | –
2 | CCCCCCCCn1c2c(c3cc(Oc4ccc(C(=O)O)o4)ccc31)CCCC2 [Example 132, 5-[(1,2,3,4-tetrahydro-9-octyl-9H-dibenzo[b,d]pyrrol-6-yl)oxy]-2-furancarboxylic acid] | – | 34% | 97% | 1 µM | – | 65% | 4 µM | 79% | – | – | 45% | Change of body wt. (vehicle) ([4]; 10 mg/Kg po daily seven days): 13 g; Change of paw volume (vehicle) ([4]; 10 mg/Kg po daily seven days): 0.48 mL
3 | CCCCCCCCn1c2c(c3cc(/C=C\c4ccc(C(=O)O)o4)ccc31)CCCC2(C)C [Example 52, (Z)-5-[2-(1,2,3,4-tetrahydro-1,1-dimethyl-9-octyl-9H-dibenzo[b,d]-pyrrol-6-yl)ethenyl]-2-furancarboxylic acid] | – | – | 66% | – | 50% | – | – | 73% | 13 g | 0.66 mL | – | –
4 | CCCCCCCCn1c2c(c3cc(Cc4ccc(C(=O)O)o4)ccc31)CCCC2 [Example 160, 5-[(1,2,3,4-tetrahydro-9-octyl-9H-dibenzo[b,d]pyrrol-6-yl)methyl]-2-furancarboxylic acid] | 49% | – | 94% | – | – | – | – | 49% | 4 g | 0.47 mL | 46% | inhibition in vivo at 10 mg/kg ([2]; 10 mg/Kg po): 50%
5 | CCCCCCCCn1c2c(c3cc(/C=C/c4ccc(C(=O)O)o4)ccc31)CCCC2 [Example 43, (E)-5-[2-(1,2,3,4-tetrahydro-9-octyl-9H-dibenzo[b,d]pyrrol-6-yl)ethenyl]-2-furancarboxylic acid] | – | – | – | 0.5 µM | – | 29% | 6 µM | – | – | – | – | PLA2-ind. paw edema % Inhib 2 hr ([1]; 50 mg/Kg ip): 60%; inhibition in vivo at 50 mg/kg ([2]; 50 mg/Kg ip): 40%; inhibition at 10 µM ([3]; 10 μM (footnote a), read-out: % Inhib. of HSF-PLA2 (a: % Inhibition at 10 μM)): 90%; Change of body wt. (vehicle) ([4]; 10 mg/Kg ip daily seven days): 12 g; Change of paw volume (vehicle) ([4]; 10 mg/Kg ip daily seven days): -0.18 mL; Change of body wt. (vehicle) ([4]; 100 mg/Kg po daily seven days): 12 g; Change of paw volume (vehicle) ([4]; 100 mg/Kg po daily seven days): -0.29 mL
